Format in all cases: biochemical
The target in one assay is T1, JAK1 (Homo sapiens, UniProt P23458).
T1 construct: purchased Invitrogen
In words: JAK1 enzyme inhibition test (LANCE method). As to conditions: 1 μM test compound; read-out: JAK1 enzyme inhibitory activity (%, 1 μM). The method, then:
(§1) JAK1 enzyme inhibitory activity of test compounds was measured by the LANCE method (PerkinElmer). First, a test compound diluted with assay buffer (50 mM HEPES (pH 7.5), 10 mM MgCl2, 1 mM EGTA, 2 mM DTT, 0.01% Tween20, 0.01% BSA) was added to a 384-well plate by 2 μL each. Then, a JAK1 (Invitrogen) solution and a fluorescence-labeled peptide substrate (ULight-JAK1, PerkinElmer) solution diluted with assay buffer to 187.5 ng/mL and 300 nM, respectively, were added by 2 μL each. Then, an enzyme reaction was started by adding 2 μL each of ATP solution prepared with assay buffer to 150 μM. After the reaction at room temperature for 1 hr, Detection Buffer (PerkinElmer) prepared to contain 20 mM EDTA, 4 nM europium-labeled anti-phosphotyrosine antibody (PerkinElmer) was added by 6 μL each. After standing at room temperature for 1 hr, fluorescence intensity (excitation wavelength 340 nm, fluorescence wavelength 665 nm, delay time 100 microseconds) was measured by a plate reader, Envision (PerkinElmer). The inhibitory activity of each compound was calculated as a relative activity value to the fluorescence intensity of a well free of enzyme as 100% inhibition.

The target of another assay is T2, JAK2 (Homo sapiens, UniProt O60674).
T2 construct: purchased Invitrogen
T2 sequence (O60674 whole entry): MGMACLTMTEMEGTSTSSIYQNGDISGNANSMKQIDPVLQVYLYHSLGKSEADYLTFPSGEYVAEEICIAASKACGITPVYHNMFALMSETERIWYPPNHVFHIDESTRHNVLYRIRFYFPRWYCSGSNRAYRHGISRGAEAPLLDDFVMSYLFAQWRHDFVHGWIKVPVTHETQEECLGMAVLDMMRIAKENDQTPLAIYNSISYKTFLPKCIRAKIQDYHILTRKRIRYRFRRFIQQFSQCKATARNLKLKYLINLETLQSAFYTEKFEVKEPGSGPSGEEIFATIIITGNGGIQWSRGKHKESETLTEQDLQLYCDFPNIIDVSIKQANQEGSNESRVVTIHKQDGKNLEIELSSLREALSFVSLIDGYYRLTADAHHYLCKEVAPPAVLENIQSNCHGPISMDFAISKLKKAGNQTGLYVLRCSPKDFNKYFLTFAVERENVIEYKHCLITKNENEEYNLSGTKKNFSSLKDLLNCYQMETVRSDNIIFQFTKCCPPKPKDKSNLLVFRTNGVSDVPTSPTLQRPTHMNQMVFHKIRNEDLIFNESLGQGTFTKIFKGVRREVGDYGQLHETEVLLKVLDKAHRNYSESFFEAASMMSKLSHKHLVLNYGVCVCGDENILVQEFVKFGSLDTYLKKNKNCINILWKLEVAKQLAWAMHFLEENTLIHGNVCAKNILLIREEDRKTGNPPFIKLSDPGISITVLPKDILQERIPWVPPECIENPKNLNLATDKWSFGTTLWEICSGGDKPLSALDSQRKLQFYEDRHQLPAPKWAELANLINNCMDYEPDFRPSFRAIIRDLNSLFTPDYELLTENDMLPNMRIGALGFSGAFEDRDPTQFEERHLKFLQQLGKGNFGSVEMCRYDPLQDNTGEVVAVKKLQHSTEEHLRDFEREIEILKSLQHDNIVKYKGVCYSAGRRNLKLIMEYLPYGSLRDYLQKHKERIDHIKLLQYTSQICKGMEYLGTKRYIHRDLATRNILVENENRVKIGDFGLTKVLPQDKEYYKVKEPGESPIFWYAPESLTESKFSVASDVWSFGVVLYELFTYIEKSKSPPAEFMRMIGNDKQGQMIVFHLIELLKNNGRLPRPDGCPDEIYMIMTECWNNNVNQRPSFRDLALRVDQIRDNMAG
In words: JAK2 enzyme inhibition test (LANCE method). As to conditions: 1 μM test compound; read-out: JAK2 enzyme inhibitory activity (%, 1 μM). The method, then:
as §1, with “JAK2 enzyme” for “JAK1 enzyme”, “a JAK2” for “a JAK1”, “to 6” for “to 187.5”, “to 45” for “to 150”
In general terms: Time-resolved FRET reads energy transfer from a long-lived donor to a nearby acceptor.

Another assay has as its target T3, JAK3 (Homo sapiens, UniProt P52333).
T3 construct: purchased Invitrogen
T3 sequence (P52333 1-1124): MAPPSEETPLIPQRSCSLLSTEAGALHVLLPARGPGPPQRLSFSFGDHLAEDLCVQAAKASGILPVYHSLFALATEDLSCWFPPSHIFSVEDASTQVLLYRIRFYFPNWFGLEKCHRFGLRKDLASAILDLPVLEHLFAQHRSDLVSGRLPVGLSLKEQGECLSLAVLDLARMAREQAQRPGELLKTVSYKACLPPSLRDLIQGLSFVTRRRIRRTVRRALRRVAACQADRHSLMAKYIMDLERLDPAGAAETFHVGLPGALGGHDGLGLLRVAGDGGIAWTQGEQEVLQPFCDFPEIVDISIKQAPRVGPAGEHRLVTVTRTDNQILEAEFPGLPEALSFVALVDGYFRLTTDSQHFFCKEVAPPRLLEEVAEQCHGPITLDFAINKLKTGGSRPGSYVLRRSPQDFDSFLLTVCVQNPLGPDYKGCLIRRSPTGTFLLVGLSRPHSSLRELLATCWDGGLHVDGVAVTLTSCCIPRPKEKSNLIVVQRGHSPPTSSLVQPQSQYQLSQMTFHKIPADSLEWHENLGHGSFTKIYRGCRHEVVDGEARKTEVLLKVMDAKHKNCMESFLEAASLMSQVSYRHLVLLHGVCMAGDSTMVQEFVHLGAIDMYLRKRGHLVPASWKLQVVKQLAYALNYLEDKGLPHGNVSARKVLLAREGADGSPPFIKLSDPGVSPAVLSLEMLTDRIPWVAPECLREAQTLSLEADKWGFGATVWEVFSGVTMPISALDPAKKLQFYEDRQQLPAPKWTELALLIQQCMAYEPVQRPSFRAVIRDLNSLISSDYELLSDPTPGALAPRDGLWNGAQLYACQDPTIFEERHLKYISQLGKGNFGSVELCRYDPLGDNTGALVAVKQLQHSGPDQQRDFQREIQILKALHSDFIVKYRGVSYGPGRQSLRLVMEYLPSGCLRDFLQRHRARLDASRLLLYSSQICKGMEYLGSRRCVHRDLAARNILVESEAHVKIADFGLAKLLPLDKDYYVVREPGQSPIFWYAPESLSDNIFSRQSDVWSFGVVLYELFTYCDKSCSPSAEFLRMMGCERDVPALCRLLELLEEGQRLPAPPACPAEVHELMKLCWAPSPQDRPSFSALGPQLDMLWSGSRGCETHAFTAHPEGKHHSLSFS
The assay is described as follows: JAK3 enzyme inhibition test (LANCE method). The settings on record: 1 μM test compound; read-out: JAK3 enzyme inhibitory activity (%, 1 μM). The method, then: as §1, with “JAK3 enzyme” for “JAK1 enzyme”, “a JAK3” for “a JAK1”, “to 12” for “to 187.5”, “to 15” for “to 150”

A further assay has as its target T4, TYK2 (Homo sapiens, UniProt P29597).
T4 construct: purchased Invitrogen
In words: TYK2 enzyme inhibition test (LANCE method). As to conditions: 1 μM test compound; read-out: TYK2 enzyme inhibitory activity (%, 1 μM). Here is the method:
as §1, with “TYK2 enzyme” for “JAK1 enzyme”, “a TYK2” for “a JAK1”, “to 375” for “to 187.5”, “to 30” for “to 150”

T1 sequence (P23458 whole entry): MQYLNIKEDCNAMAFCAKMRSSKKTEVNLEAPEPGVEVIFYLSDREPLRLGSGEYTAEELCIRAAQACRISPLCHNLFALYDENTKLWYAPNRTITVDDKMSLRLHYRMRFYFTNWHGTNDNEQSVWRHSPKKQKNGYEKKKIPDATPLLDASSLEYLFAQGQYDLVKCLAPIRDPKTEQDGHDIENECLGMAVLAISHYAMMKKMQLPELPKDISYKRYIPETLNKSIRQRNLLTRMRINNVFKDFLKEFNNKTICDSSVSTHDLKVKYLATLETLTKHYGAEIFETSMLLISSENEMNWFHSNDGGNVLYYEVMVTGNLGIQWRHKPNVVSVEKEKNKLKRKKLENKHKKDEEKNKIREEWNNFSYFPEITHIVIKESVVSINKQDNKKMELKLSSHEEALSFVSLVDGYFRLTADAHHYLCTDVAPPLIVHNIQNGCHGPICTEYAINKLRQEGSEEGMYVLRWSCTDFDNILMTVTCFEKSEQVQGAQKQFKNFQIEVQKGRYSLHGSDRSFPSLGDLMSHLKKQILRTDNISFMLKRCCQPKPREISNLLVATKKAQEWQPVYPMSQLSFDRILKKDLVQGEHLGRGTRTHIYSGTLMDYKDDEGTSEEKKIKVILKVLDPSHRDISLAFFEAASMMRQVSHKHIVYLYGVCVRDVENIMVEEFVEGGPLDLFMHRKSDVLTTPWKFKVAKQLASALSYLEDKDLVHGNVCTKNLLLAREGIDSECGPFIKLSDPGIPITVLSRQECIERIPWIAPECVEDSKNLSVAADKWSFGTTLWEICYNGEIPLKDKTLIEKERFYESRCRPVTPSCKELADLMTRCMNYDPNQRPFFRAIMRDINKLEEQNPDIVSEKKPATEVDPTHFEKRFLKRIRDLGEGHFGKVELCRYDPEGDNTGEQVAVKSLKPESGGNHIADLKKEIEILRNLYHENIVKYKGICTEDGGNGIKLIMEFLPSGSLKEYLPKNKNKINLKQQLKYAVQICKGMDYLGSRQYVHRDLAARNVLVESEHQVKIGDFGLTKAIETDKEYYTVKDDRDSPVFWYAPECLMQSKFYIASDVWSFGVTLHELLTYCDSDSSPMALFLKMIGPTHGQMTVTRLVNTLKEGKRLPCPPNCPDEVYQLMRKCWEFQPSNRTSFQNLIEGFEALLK
T4 sequence (P29597 whole entry): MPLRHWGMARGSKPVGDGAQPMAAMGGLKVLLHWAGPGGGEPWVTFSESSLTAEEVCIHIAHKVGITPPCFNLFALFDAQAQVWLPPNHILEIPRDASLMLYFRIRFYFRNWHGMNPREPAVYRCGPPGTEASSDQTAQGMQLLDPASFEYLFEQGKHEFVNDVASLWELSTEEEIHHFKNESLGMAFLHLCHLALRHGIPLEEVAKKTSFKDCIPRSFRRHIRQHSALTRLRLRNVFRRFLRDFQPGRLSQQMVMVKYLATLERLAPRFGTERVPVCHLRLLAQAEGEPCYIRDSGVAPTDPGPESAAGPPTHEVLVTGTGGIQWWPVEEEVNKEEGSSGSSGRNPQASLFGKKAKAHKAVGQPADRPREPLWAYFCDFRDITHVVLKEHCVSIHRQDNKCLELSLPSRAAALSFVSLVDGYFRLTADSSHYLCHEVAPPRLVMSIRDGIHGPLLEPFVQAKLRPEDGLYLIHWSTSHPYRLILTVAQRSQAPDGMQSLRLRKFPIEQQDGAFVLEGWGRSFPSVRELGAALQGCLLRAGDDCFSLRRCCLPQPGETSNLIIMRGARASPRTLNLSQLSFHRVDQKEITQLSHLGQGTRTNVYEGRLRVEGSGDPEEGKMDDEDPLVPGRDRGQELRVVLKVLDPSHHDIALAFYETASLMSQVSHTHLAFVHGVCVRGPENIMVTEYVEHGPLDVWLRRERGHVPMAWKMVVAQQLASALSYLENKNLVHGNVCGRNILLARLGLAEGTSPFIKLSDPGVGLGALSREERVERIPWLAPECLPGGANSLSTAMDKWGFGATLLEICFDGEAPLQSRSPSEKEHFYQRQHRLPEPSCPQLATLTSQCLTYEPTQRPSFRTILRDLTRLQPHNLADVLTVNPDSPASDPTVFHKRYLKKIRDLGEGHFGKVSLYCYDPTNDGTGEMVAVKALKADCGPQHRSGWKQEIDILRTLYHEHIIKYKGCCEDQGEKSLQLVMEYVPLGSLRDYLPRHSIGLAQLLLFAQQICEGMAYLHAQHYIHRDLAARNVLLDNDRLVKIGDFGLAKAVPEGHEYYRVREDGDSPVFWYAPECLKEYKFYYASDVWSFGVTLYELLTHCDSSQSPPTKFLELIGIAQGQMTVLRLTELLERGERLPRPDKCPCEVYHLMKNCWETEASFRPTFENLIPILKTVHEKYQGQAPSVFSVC

As to `CO[C@H]1CCN(c2cc(-c3cn([C@@H](C)C(C)C)c(=O)c4c(N)n[nH]c34)nn2C)C1` [Example 25, 3-amino-7-(5-((3S)-3-methoxypyrrolidin-1-yl)-1-methyl-1H-pyrazol-3-yl)-5-((2S)-3-methylbutan-2-yl)-1,5-dihydro-4H-pyrazolo[4,3-c]pyridin-4-one], the inhibition at 1 µM on JAK1 was 98%; on JAK2, 98%; on JAK3, 99%; at TYK2, 100%.
Take `CC(C)[C@H](C)n1cc(-c2cc(N3CCOC(C)(C)C3)n(C)n2)c2[nH]nc(N)c2c1=O` [Example 30, 3-amino-7-(5-(2,2-dimethylmorpholin-4-yl)-1-methyl-1H-pyrazol-3-yl)-5-((2S)-3-methylbutan-2-yl)-1,5-dihydro-4H-pyrazolo[4,3-c]pyridin-4-one]: the inhibition at 1 µM on JAK1 was determined as 97%; at JAK2 it was 99%; on JAK3, 99%; on TYK2, 99%.
As for `CC(C)[C@H](C)n1cc(-c2cc(N3CCCC3=O)n(C)n2)c2[nH]nc(N)c2c1=O` [Example 55, 3-amino-5-((2S)-3-methylbutan-2-yl)-7-(1-methyl-5-(2-oxopyrrolidin-1-yl)-1H-pyrazol-3-yl)-1,5-dihydro-4H-pyrazolo[4,3-c]pyridin-4-one], the inhibition at 1 µM came out at 98% at JAK1, 98% at JAK2, 99% on JAK3 and 99% at TYK2.
`CC(C)[C@H](C)n1cc(-c2cc(C(=O)N3CCS(=O)(=O)CC3)n(C)n2)c2[nH]nc(N)c2c1=O` [Example 45, 3-amino-7-(5-((1,1-dioxidothiomorpholin-4-yl)carbonyl)-1-methyl-1H-pyrazol-3-yl)-5-((2S)-3-methylbutan-2-yl)-1,5-dihydro-4H-pyrazolo[4,3-c]pyridin-4-one]: the inhibition at 1 µM at JAK1 was determined as 98%; on JAK2 it was 99%; on JAK3, 99%; on TYK2, 100%.
For `CO[C@]1(c2cc(-c3cn(-c4c(F)cccc4F)c(=O)c4c(N)n[nH]c34)nn2C)C[C@H](C(=O)N(C)C)C1` [Example 124, cis-3-(3-(3-amino-5-(2,6-difluorophenyl)-4-oxo-4,5-dihydro-1H-pyrazolo[4,3-c]pyridin-7-yl)-1-methyl-1H-pyrazol-5-yl)-3-methoxy-N,N-dimethylcyclobutanecarboxamide], the inhibition at 1 µM on JAK1 stood at 99%; on JAK2 it was 99%; on JAK3, 100%; at TYK2 it was 101%.
In the case of `CC(n1cc(-c2cc(N3CCOCC3)n(C)n2)c2[nH]nc(N)c2c1=O)C(C)(C)O` (stereo not drawn) [Example 99, 3-amino-5-(3-hydroxy-3-methylbutan-2-yl)-7-(1-methyl-5-(morpholin-4-yl)-1H-pyrazol-3-yl)-1,5-dihydro-4H-pyrazolo[4,3-c]pyridin-4-one], the inhibition at 1 µM at JAK1 stood at 83%; at JAK2, 85%; at JAK3, 97%; at TYK2, 99%.
On the same counts, the results for `CC(C1CC1)n1cc(-c2cc(CN3CCS(=O)(=O)CC3)n(C)n2)c2[nH]nc(N)c2c1=O` (stereo not drawn) [Example 9, 3-amino-5-(1-cyclopropylethyl)-7-(5-((1,1-dioxidothiomorpholin-4-yl)methyl)-1-methyl-1H-pyrazol-3-yl)-1,5-dihydro-4H-pyrazolo[4,3-c]pyridin-4-one] are 98%, 99%, 100% and 99%.
In the same order, the values of `Cn1nc(-c2cn(-c3c(F)cccc3C#N)c(=O)c3c(N)n[nH]c23)cc1C(C)(C)O` [Example 71, 2-(3-amino-7-(5-(2-hydroxypropan-2-yl)-1-methyl-1H-pyrazol-3-yl)-4-oxo-1,4-dihydro-5H-pyrazolo[4,3-c]pyridin-5-yl)-3-fluorobenzonitrile] are 98%, 97%, 98% and 99%.
For the compound `CC(=O)NCC(C)(C)c1cc(-c2cn([C@@H](C)C(C)C)c(=O)c3c(N)n[nH]c23)nn1C` [Example 51, N-(2-(3-(3-amino-5-((2S)-3-methylbutan-2-yl)-4-oxo-4,5-dihydro-1H-pyrazolo[4,3-c]pyridin-7-yl)-1-methyl-1H-pyrazol-5-yl)-2-methylpropyl)acetamide], the inhibition at 1 µM was 97% at JAK1, 97% on JAK2, 97% on JAK3 and 99% on TYK2.

Values taken from patent publication US9637483B2, “Heterocyclic compound” (TAKEDA PHARMACEUTICAL COMPANY LIMITED, priority 2013, dated 2017).
